According to patent US5500416A, “Percutaneous absorption promoting agent and dermatologic preparation containing the same” (priority 1987, dated 1996):

System: enucleated skin of a hairless mouse
Experiment: Drug permeability test by in vitro diffusion cell
Format: in vitro ADME
Conditions: pH 7.2
Procedure: A drug permeability test was conducted for amine oxide, which is the product of the present invention.
Pharmaceutical samples comprising the following composition were prepared.
For an evaluation of the percutaneous absorption promoting effect of a drug with the test substance, a drug permeability test was conducted by in vitro diffusion cell, using the enucleated skin of a hairless mouse. As the diffusion cell device, a vertical film type 2-compartment cell with a diffusion area of 2 cm^2 was employed. The whole skin layer at the back of a 10 to 15 weeks old male hairless mouse was enucleated and mounted on a diffusion cell. In the cell compartment on the medicament sample side, 2 ml of a medicament sample was placed, and 2 ml of a phosphate buffer phisiological saline (pH 7.2) was placed in the cell compartment on the receptor side, and the whole cell maintained at 32° C. in a thermostat tank while gently stirring both phases. After 24 hours, the receptor solution was sampled and the amount of the drug permeated by high performance chromatography to the receptor side quantitated.

Compound | Drug permeability [%] | Drug permeability (Table 5-1, hydroquinone 1.0%, test substance 0.1%, ethanol 20%, 24 hours, 32° C.) [%]
CCCCCCCCCCCCCCCCCC[N+](C)(C)[O-] [Example 5-1, Dimethylstearylamine oxide] | 44.0 | 
CCCCCCCCCCCCCCCCCC[N+]([O-])(CCO)CCO [Example 5-3, Dihyroxyethylstearylamine oxide] | 30.5 | 

Now from value to compound:

Drug permeability [%] | Drug permeability (Table 5-1, hydroquinone 1.0%, test substance 0.1%, ethanol 20%, 24 hours, 32° C.) [%] | Compound
28.6 |  | CCCCCCCCCCCCCCCCCCCCCC[N+](C)(C)[O-] [Example 5-2, Dimethylbehenylamine oxide]
 | 9.4 | CCCCCCCCCCCC[N+](C)(C)[O-] [Example 5-4, Dimethyllaurylamine oxide]
11.8 |  | CCCCCCCCCCCCCC[N+](C)(C)[O-] [Example 5-5, Dimethylmyristylamine oxide]
